Data on 23 molecules can be found in patent US6677347B2, “Sulfonamido ether substituted imidazoquinolines” (3M Innovative Properties Company, priority 2000, dated 2004).

In one series the test system is interferon (α). Put plainly: Cytokine Induction in Human Cells: interferon (α) by ELISA. The format is cell-based. Set-up: key to Lowest Effective Concentration (μM) Interferon: *: no induction was seen at any of the tested concentrations; generally the highest concentration tested was 10 or 30 μM. The conditions noted are these: human PBMC, 18 to 24 hours incubation, lowest concentration found to induce interferon. The source says: (§1) An in vitro human blood cell system is used to assess cytokine induction. Activity is based on the measurement of interferon and tumor necrosis factor (α) (IFN and TNF, respectively) secreted into culture media as described by Testerman et. al. In “Cytokine Induction by the Immunomodulators Imiquimod and S-27609”, Journal of Leukocyte Biology, 58, 365-372 (September, 1995).
(§2) Whole blood from healthy human donors is collected by venipuncture into EDTA vacutainer tubes. Peripheral blood mononuclear cells (PBMC) are separated from whole blood by density gradient centrifugation using Histopaque®-1077. Blood is diluted 1:1 with Dulbecco's Phosphate Buffered Saline (DPBS) or Hank's Balanced Salts Solution (HBSS). The PBMC layer is collected and washed twice with DPBS or HBSS and resuspended at 4×10^6 cells/mL in RPMI complete. The PBMC suspension is added to 48 well flat bottom sterile tissue culture plates (Costar, Cambridge, Mass. or Becton Dickinson Labware, Lincoln Park, N.J.) containing an equal volume of RPMI complete media containing test compound.
(§3) The compounds are solubilized in dimethyl sulfoxide (DMSO). The DMSO concentration should not exceed a final concentration of 1% for addition to the culture wells. The compounds are generally tested at concentrations ranging from 30-0.014 μM.
(§4) The solution of test compound is added at 60 μM to the first well containing RPMI complete and serial 3 fold dilutions are made in the wells. The PBMC suspension is then added to the wells in an equal volume, bringing the test compound concentrations to the desired range (30-0.014 μM). The final concentration of PBMC suspension is 2×10^6 cells/mL. The plates are covered with sterile plastic lids, mixed gently and then incubated for 18 to 24 hours at 37° C. in a 5% carbon dioxide atmosphere.
(§5) Following incubation the plates are centrifuged for 10 minutes at 1000 rpm (˜200×g) at 4° C. The cell-free culture supernatant is removed with a sterile polypropylene pipet and transferred to sterile polypropylene tubes. Samples are maintained at −30 to −70° C. until analysis. The samples are analyzed for interferon (α) by ELISA and for tumor necrosis factor (α) by ELISA or IGEN Assay
Interferon (α) concentration is determined by ELISA using a Human Multi-Species kit from PBL Biomedical Laboratories, New Brunswick, N.J. Results are expressed in pg/mL.
(§6) The table below lists the lowest concentration found to induce interferon and the lowest concentration found to induce tumor necrosis factor for each compound.
On the technique in general: An ELISA detects its analyte on a solid surface through an enzyme-linked reagent.

Series [1] deals with tumor necrosis factor (α). Put plainly: Cytokine Induction in Human Cells: tumor necrosis factor (α) by ELISA or IGEN assay. The conditions noted are these: human PBMC, 18 to 24 hours incubation, lowest concentration found to induce tumor necrosis factor. Set-up: key to Lowest Effective Concentration (μM) Tumor Necrosis Factor: *: no induction was seen at any of the tested concentrations; generally the highest concentration tested was 10 or 30 μM. The format is cell-based.
Source text: as §1, §2, §3, §4, §5
Tumor necrosis factor (α) (TNF) concentration is determined using ELISA kits available from Biosource International, Camarillo, Calif. Alternately, the TNF concentration can be determined by Origen® M-Series Immunoassay and read on an IGEN M-8 analyzer from IGEN International, Gaithersburg, Md. The immunoassay uses a human TNF capture and detection antibody pair from Biosource International, Camarillo, Calif. Results are expressed in pg/mL.
as §6

For the molecule `Cc1nc2c(N)nc3ccccc3c2n1CCOCCN1CCCS1(=O)=O` [Example 60, 1-{2-[2-(1,1-Dioxidoisothiazolidin-2-yl)ethoxy]ethyl}-2-methyl-1H-imidazo[4,5-c]quinolin-4-amine], the melting point was in the range of 186 to 187 °C. Take `COCCc1nc2c(N)nc3ccccc3c2n1CCOCCN(C)S(=O)(=O)C(C)C` [Example 59, N-(2-{2-[4-amino-2-(2-methoxyethyl)-1H-imidazo[4,5-c]quinolin-1-yl]ethoxy}ethyl)-N-methylpropane-2-sulfonamide]: the melting point is 129.7 to 130.2 °C. `COCCc1nc2c(N)nc3ccccc3c2n1CCOCCN(C)S(C)(=O)=O` [Example 3, N-(2-{2-[4-amino-2-(2-methoxyethyl)-1H-imidazo[4,5-c]quinolin-1-yl]ethoxy}ethyl)-N-methylmethanesulfonamide] returned a melting point of 145 to 146.5 °C. The minimal effective concentration in the series with interferon (α) came out at 0.01 µM. In series [1], this molecule showed a minimal effective concentration of 0.12 µM.

Take `COCCc1nc2c(N)nc3c(c2n1CCOCCNS(C)(=O)=O)CCCC3` [Example 2, N-(2-{2-[4-amino-2-(2-methoxyethyl)-6,7,8,9-tetrahydro-1H-imidazo[4,5-c]quinolin-1-yl]ethoxy}ethyl)methanesulfonamide]: the melting point lay in the range of 151 to 153 °C.

Consider `Cc1nc2c(N)nc3ccccc3c2n1CCOCCNS(C)(=O)=O` [Example 54, N-{2-[2-(4-amino-2-methyl-1H-imidazo[4,5-c]quinolin-1-yl)ethoxy]ethyl}methanesulfonamide], for which the melting point was in the range of 152 to 155 °C. `Cc1nc2c(N)nc3ccccc3c2n1CCOCCNS(=O)(=O)C(C)C` [Example 55, N-{2-[2-(4-amino-2-methyl-1H-imidazo[4,5-c]quinolin-1-yl)ethoxy]ethyl}propane-2-sulfonamide]: the melting point was 172 to 175 °C. Take `CCCCc1nc2c(N)nc3ccccc3c2n1CCOCCN1CCCS1(=O)=O` [Example 5, 2-Butyl-1-{2-[2-(1,1-dioxidoisothiazolidin-2-yl)ethoxy]ethyl}-1H-imidazo[4,5-c]quinolin-4-amine]: the melting point lay in the range of 152 to 154 °C.

`COCCc1nc2c(N)nc3c(c2n1CCOCCN(C)S(C)(=O)=O)CCCC3` [Example 4, N-(2-{2-[4-amino-2-(2-methoxyethyl)-6,7,8,9-tetrahydro-1H-imidazo[4,5-c]quinolin-1-yl]ethoxy}ethyl)-N-methylmethanesulfonamide] showed a melting point of 115.3 to 117.8 °C. As for `CCOCc1nc2c(N)nc3ccccc3c2n1CCOCCNS(C)(=O)=O` [Example 57, N-(2-{2-[4-amino-2-(ethoxymethyl)-1H-imidazo[4,5-c]quinolin-1-yl]ethoxy}ethyl)methanesulfonamide], the melting point lay in the range of 152 to 155 °C. Take `CCCCc1nc2c(N)nc3ccccc3c2n1CCOCCNS(=O)(=O)c1ccc(/N=N/c2ccc(N(C)C)cc2)cc1` [Example 25]: the minimal effective concentration with interferon (α) stood at 0.0001 µM. For the same molecule, the “Lowest Effective Concentration (μM) Tumor Necrosis Factor” value in series [1] is “*”. For the molecule `CCc1nc2c(N)nc3ccccc3c2n1CCOCCNS(C)(=O)=O` [Example 56, N-{2-[2-(4-amino-2-ethyl-1H-imidazo[4,5-c]quinolin-1-yl)ethoxy]ethyl}methanesulfonamide], the melting point fell in the range of 169 to 171 °C. Regarding `COCCc1nc2c(N)nc3ccccc3c2n1CCOCCNS(C)(=O)=O` [Example 1, N-(2-{2-[4-amino-2-(2-methoxyethyl)-1H-imidazo[4,5-c]quinolin-1-yl]ethoxy}ethyl)methanesulfonamide], the melting point lay within 114 to 117 °C. Turning to `CCCCc1nc2c(N)nc3ccccc3c2n1CCOCCNS(=O)(=O)c1ccc(F)cc1F` [Example 17], the minimal effective concentration in the series on interferon (α) was 1 µM; in series [1], 10 µM. In the case of `CCCCc1nc2c(N)nc3ccccc3c2n1CCOCCNS(=O)(=O)c1ccc2ccccc2c1` [Example 19], the “Lowest Effective Concentration (μM) Interferon” value in the series on interferon (α) is “*”. Further, the minimal effective concentration in series [1] stood at 10 µM. Take `Cc1nc2c(N)nc3ccccc3c2n1CCOCCN` [Example 51, 1-[2-(2-aminoethoxy)ethyl]-2-methyl-1H-imidazo[4,5-c]quinolin-4-amine]: the melting point lay within 155 to 157 °C. For the molecule `CCOCc1nc2c(N)nc3ccccc3c2n1CCOCCNS(=O)(=O)C(C)C` [Example 58, N-(2-{2-[4-amino-2-(ethoxymethyl)-1H-imidazo[4,5-c]quinolin-1-yl]ethoxy}ethyl)propane-2-sulfonamide], the melting point was 139 to 142 °C. Consider `CCc1nc2c(N)nc3ccccc3c2n1CCOCCN` [Example 52, 1-[2-(2-aminoethoxy)ethyl]-2-ethyl-1H-imidazo[4,5-c]quinolin-4-amine], for which the melting point lay in the range of 144 to 146 °C. Turning to `CCCCc1nc2c(N)nc3ccccc3c2n1CCOCCNS(=O)(=O)c1ccc(OC)cc1` [Example 16], the minimal effective concentration with interferon (α) worked out at 1 µM; in series [1] it was 10 µM. Regarding `CCC(COCCC1CCN(S(=O)(=O)c2cccc3cccnc23)CC1)n1cnc2c(N)nc3ccccc3c21` (stereo not shown) [Example 36], the minimal effective concentration in the series on interferon (α) stood at 1 µM; in series [1], 10 µM.

Turning to `CCCCc1nc2c(N)nc3ccccc3c2n1CCOCCNS(=O)(=O)c1cccc(F)c1` [Example 13], the minimal effective concentration with interferon (α) was found to be 1 µM; in series [1], 10 µM.

On to `CCCCc1nc2c(N)nc3ccccc3c2n1CCOCCNS(=O)(=O)c1ccc(S(C)(=O)=O)cc1` [Example 23], for which the minimal effective concentration was found to be 0.0001 µM in the series with interferon (α) and 10 µM in series [1]. On to `CCCCc1nc2c(N)nc3ccccc3c2n1CCOCCNS(=O)(=O)C(C)C` [Example 7], for which the values for the minimal effective concentration (in the series on interferon (α); in series [1]) were 0.01 µM and 1 µM, respectively. On to `Nc1nc2ccccc2c2c1ncn2CCOCCNS(=O)(=O)c1ccc(F)cc1F` [Example 44], for which the minimal effective concentration with interferon (α) was found to be 1 µM; in series [1], 10 µM.

As a reminder, the melting point is the temperature of the solid-liquid transition. As usually defined, the minimal effective concentration is the lowest level tested that produced the effect sought.
